Data on one compound can be found in ChEMBL document CHEMBL2073853, “Cholesterol interaction with the daunorubicin binding site of P-glycoprotein” (Biochem Biophys Res Commun, 2000).

For the test, the target named is ATP-dependent translocase ABCB1 (Homo sapiens, UniProt P08183). Description: TP_TRANSPORTER: increase in Daunorubicn intracellular accumulation (Daunorubicin: ? uM) in NIH-G185 cells. The class given is functional, cell-based.

Usually IC50 stands for the concentration that inhibits the measured activity by half.

Chain of ATP-dependent translocase ABCB1 (P08183 whole entry): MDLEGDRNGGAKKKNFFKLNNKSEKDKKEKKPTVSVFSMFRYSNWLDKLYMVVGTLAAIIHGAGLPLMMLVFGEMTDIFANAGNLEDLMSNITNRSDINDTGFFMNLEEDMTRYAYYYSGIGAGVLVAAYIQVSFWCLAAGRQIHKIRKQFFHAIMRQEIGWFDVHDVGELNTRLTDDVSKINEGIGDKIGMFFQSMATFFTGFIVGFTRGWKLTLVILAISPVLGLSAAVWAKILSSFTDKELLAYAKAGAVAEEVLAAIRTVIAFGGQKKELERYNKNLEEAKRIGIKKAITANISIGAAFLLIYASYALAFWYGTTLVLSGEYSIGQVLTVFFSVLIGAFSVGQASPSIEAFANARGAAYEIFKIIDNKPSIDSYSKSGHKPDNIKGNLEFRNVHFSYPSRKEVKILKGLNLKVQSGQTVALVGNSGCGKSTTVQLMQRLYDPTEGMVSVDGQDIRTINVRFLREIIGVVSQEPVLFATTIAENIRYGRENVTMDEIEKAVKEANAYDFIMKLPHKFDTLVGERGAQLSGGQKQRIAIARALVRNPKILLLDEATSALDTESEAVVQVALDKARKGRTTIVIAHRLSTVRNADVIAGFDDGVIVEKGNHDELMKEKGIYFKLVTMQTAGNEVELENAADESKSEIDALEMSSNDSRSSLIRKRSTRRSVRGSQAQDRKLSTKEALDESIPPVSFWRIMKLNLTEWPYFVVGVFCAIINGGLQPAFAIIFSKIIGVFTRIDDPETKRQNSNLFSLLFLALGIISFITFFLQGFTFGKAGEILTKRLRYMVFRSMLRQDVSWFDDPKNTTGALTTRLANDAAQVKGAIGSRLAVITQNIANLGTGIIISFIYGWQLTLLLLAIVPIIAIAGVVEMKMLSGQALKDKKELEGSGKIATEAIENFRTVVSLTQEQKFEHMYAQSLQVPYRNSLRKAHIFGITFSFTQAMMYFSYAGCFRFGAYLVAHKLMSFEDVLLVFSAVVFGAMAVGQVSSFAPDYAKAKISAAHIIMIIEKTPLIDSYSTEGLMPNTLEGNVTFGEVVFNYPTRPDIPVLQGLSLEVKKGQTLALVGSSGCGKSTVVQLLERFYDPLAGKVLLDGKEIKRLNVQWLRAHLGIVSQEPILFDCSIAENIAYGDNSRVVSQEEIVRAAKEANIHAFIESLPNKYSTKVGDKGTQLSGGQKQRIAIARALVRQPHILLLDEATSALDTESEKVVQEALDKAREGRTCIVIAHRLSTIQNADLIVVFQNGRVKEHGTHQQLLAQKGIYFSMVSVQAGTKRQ

On to `CC(C)CCC[C@@H](C)[C@H]1CC[C@H]2[C@@H]3CC=C4C[C@@H](O)CC[C@]4(C)[C@H]3CC[C@]12C` [CHOLESTEROL], for which the IC50 came to 8.2 µM.
